Measurements reported in ChEMBL document CHEMBL3885881, “DrugMatrix”.

Species on record: Rattus norvegicus
Assay: DrugMatrix - Regimen: Daily Repeat
Type: toxicity, organism-based, Sprague-Dawley
Set-up: regimen Daily Repeat, gender Male, age 6-8 weeks
Details: in vivo, sc, 4 mg/kg, route subcutaneous, dose level High, […]; for ABSOLUTE BASOPHIL / ABSOLUTE EOSINOPHIL / ABSOLUTE LYMPHOCYTE / ABSOLUTE MONOCYTE / ABSOLUTE SEGMENTED NEUTROPHIL / BASOPHIL / EOSINOPHIL / ERYTHROCYTE COUNT / HEMATOCRIT / HEMOGLOBIN / LEUKOCYTE COUNT / LYMPHOCYTE / MEAN CORPUSCULAR HEMOGLOBIN / MEAN CORPUSCULAR HEMOGLOBIN CONCENTRATION / MEAN CORPUSCULAR VOLUME / MONOCYTE / NEUTROPHIL / NUCLEATED RED BLOOD CELLS / PLATELET COUNT: tissue Blood; for ALANINE AMINOTRANSFERASE / ALBUMIN / ALKALINE PHOSPHATASE / ASPARTATE AMINOTRANSFERASE / BLOOD UREA NITROGEN / CARBON DIOXIDE / CHLORIDE / CHOLESTEROL / CREATINE PHOSPHOKINASE / CREATININE / GLUCOSE / LACTATE DEHYDROGENASE / LIPASE / PHOSPHORUS / POTASSIUM / SODIUM / TOTAL BILIRUBIN / TOTAL PROTEIN / URIC ACID: tissue Plasma

COc1cc([C@@H]2c3cc4c(cc3[C@H](O)[C@H]3COC(=O)[C@H]23)OCO4)cc(OC)c1OC [PODOFILOX]
ABSOLUTE BASOPHIL (72 h, time 3 day): 0 CELLS/uL | ABSOLUTE EOSINOPHIL (72 h, time 3 day): 70.67 CELLS/uL | ABSOLUTE LYMPHOCYTE (72 h, time 3 day): 10536.33 CELLS/uL | ABSOLUTE MONOCYTE (72 h, time 3 day): 257.67 CELLS/uL | ABSOLUTE SEGMENTED NEUTROPHIL (72 h, time 3 day): 768.67 CELLS/uL | BASOPHIL (72 h, time 3 day): 0% | EOSINOPHIL (72 h, time 3 day): 0.67% | ERYTHROCYTE COUNT (72 h, time 3 day): 4.67 x10E6/uL | HEMATOCRIT (72 h, time 3 day): 29.03% | HEMOGLOBIN (72 h, time 3 day): 11 G/DL | LEUKOCYTE COUNT (72 h, time 3 day): 11.63 x10E3/uL | LYMPHOCYTE (72 h, time 3 day): 90.33% | MEAN CORPUSCULAR HEMOGLOBIN (72 h, time 3 day): 23.63 pg | MEAN CORPUSCULAR HEMOGLOBIN CONCENTRATION (72 h, time 3 day): 37.93 G/DL | MEAN CORPUSCULAR VOLUME (72 h, time 3 day): 62.43 fL | MONOCYTE (72 h, time 3 day): 2.33% | NEUTROPHIL (72 h, time 3 day): 6.67% | NUCLEATED RED BLOOD CELLS (72 h, time 3 day): 0.67 /100WBC | PLATELET COUNT (72 h, time 3 day): 1479.33 x10E3/uL | ALANINE AMINOTRANSFERASE (72 h, time 3 day): 36 u/L | ALBUMIN (72 h, time 3 day): 3.27 G/DL | ALKALINE PHOSPHATASE (72 h, time 3 day): 238.33 u/L | ASPARTATE AMINOTRANSFERASE (72 h, time 3 day): 81 u/L | BLOOD UREA NITROGEN (72 h, time 3 day): 15.33 mg/dL | CARBON DIOXIDE (72 h, time 3 day): 22.67 mmol/L | CHLORIDE (72 h, time 3 day): 105.67 MEQ/L | CHOLESTEROL (72 h, time 3 day): 61 mg/dL | CREATINE PHOSPHOKINASE (72 h, time 3 day): 371.33 u/L | CREATININE (72 h, time 3 day): 0.17 mg/dL | GLUCOSE (72 h, time 3 day): 145 mg/dL | LACTATE DEHYDROGENASE (72 h, time 3 day): 371.33 u/L | LIPASE (72 h, time 3 day): 7.67 u/L | PHOSPHORUS (72 h, time 3 day): 9.1 mg/dL | POTASSIUM (72 h, time 3 day): 6.96 MEQ/L | SODIUM (72 h, time 3 day): 144.97 MEQ/L | TOTAL BILIRUBIN (72 h, time 3 day): 0.17 mg/dL | TOTAL PROTEIN (72 h, time 3 day): 5.3 G/DL | URIC ACID (72 h, time 3 day): 1.73 mg/dL | ABSOLUTE BASOPHIL (120 h, time 5 day): 0 CELLS/uL | ABSOLUTE EOSINOPHIL (120 h, time 5 day): 0 CELLS/uL | ABSOLUTE LYMPHOCYTE (120 h, time 5 day): 6143.67 CELLS/uL | ABSOLUTE MONOCYTE (120 h, time 5 day): 159 CELLS/uL | ABSOLUTE SEGMENTED NEUTROPHIL (120 h, time 5 day): 330.67 CELLS/uL | BASOPHIL (120 h, time 5 day): 0% | EOSINOPHIL (120 h, time 5 day): 0% | ERYTHROCYTE COUNT (120 h, time 5 day): 5.45 x10E6/uL | HEMATOCRIT (120 h, time 5 day): 32.83% | HEMOGLOBIN (120 h, time 5 day): 12.27 G/DL | LEUKOCYTE COUNT (120 h, time 5 day): 6.63 x10E3/uL | LYMPHOCYTE (120 h, time 5 day): 93% | MEAN CORPUSCULAR HEMOGLOBIN (120 h, time 5 day): 22.5 pg | MEAN CORPUSCULAR HEMOGLOBIN CONCENTRATION (120 h, time 5 day): 37.37 G/DL | MEAN CORPUSCULAR VOLUME (120 h, time 5 day): 60.13 fL | MONOCYTE (120 h, time 5 day): 2.33% | NEUTROPHIL (120 h, time 5 day): 4.67% | NUCLEATED RED BLOOD CELLS (120 h, time 5 day): 0 /100WBC | PLATELET COUNT (120 h, time 5 day): 878 x10E3/uL | ALANINE AMINOTRANSFERASE (120 h, time 5 day): 45.67 u/L | ALBUMIN (120 h, time 5 day): 3.57 G/DL | ALKALINE PHOSPHATASE (120 h, time 5 day): 214.33 u/L | ASPARTATE AMINOTRANSFERASE (120 h, time 5 day): 96.33 u/L | BLOOD UREA NITROGEN (120 h, time 5 day): 18 mg/dL | CARBON DIOXIDE (120 h, time 5 day): 26.5 mmol/L | CHLORIDE (120 h, time 5 day): 104.5 MEQ/L | CHOLESTEROL (120 h, time 5 day): 69.5 mg/dL | CREATINE PHOSPHOKINASE (120 h, time 5 day): 269.67 u/L | CREATININE (120 h, time 5 day): 0.18 mg/dL | GLUCOSE (120 h, time 5 day): 163 mg/dL | LACTATE DEHYDROGENASE (120 h, time 5 day): 182.67 u/L | LIPASE (120 h, time 5 day): 8 u/L | PHOSPHORUS (120 h, time 5 day): 11.1 mg/dL | POTASSIUM (120 h, time 5 day): 5.69 MEQ/L | SODIUM (120 h, time 5 day): 146.25 MEQ/L | TOTAL BILIRUBIN (120 h, time 5 day): 0.1 mg/dL | TOTAL PROTEIN (120 h, time 5 day): 5.8 G/DL | URIC ACID (120 h, time 5 day): 1.35 mg/dL
